As usually defined, the IC50 is the concentration that gives 50% inhibition.

The subject of data set [1] is Human glioblastoma cell line U251. The conditions noted are these: cited from earlier work.
The conditions of data set [2]: for AUC values for acrolein (trapezoidal rule): 0-120, IV CPA 250, IFOS 400, 4-HOOI 100 mg/kg.
Experimental: Half of each plasma sample was lyophilized to collect ACR in a dry ice/methanol-cooled trap. […] For chloroacetaldehyde, the other half of the plasma sample was treated directly with the above trapping agent and the same procedure was used (6 mins) compared with synthetic controls.
Data set [3] deals with P388 CPA-resistant murine leukemia cell line. Nature of the data set: P388/CPA leukemia injected IP in mice. It counts as in vivo. The conditions noted are these: IP once per day for 5 days, 4-HOOI 90, IFOS 40, IPM 40 mg/kg/day.
Experimental: (§2) Human breast cancer cell lines MX-1 and ZR75-1 were implanted subcutaneously (SC). Human glioblastoma cell line U251 was implanted intracranially (IC) and P388 CPA-resistant murine leukemia cell line was injected intraperitoneally (IP). For IC implanted tumor cells, treatment was begun 5-7 days post-inoculation. For SC tumors, treatment was begun when the tumor was palpable (5-10 days post-inoculation). Mice were treated with the indicated dose of drug intraperitoneally once per day for 5 days.
The test system of the next data set is humans. As to conditions: cited from earlier work.
Data set [4] has as its system Human breast cancer cell line MX-1. Kind of data set: MX-1 xenograft implanted SC in mice. The format is in vivo. The conditions noted are these: IP once per day for 5 days; for MX-1 T-C: 4-HOOI 90, IFOS 40, IPM 40 mg/kg/day.
Experimental: as §2
Data set [5] can be described thus: Stability profile of bulk 4-HOOI vs. 4-HOOI.Lys (HPLC, NMR).
Another data set has as its system 9 L rat glioma cells. Nature of the data set: Activity in vitro against 9L rat glioma cells in culture. The format is cell-based. The conditions noted are these: for IC50: dose range 0.1-1.00 μg/ml. As to the method:
The IC50 for each compound and also ifosfamide was determined (Table 3).

Data set [6] relates to Sprague Dawley female rats. Kind of data set: Rat neurobehavioral modified Morris water maze and pathology. The format is in vivo. As to conditions: for Pathology five days later (gross, confirmed by histology) / Memory and learning time intervals: single IP dose: IFOS 400, 4-HOOI 200, 4-HOOI.Lys 300 mg/kg; for Memory and learning time intervals: 1, 2, 3, 20 hours post-dosing. As to the method:
Rat Dosing: Neuro-oncology studies with 4-HOOI were conducted to evaluate the product as compared to ifosfamide in a rat neurobehavioral modified Morris water maze. Ifosfamide produces coma and neuro-edema in high doses. […] Timings (six at each time) were measured at 1, 2, 3, and 20 hours post-dosing to monitor learning and memory. […] Histological examinations confirmed the gross observations.

A further data set concerns Rat glioma 9 L cells. Nature of the data set: 9L rat glioma implanted subcutaneously in rats. As to conditions: doses as in Table 7. Here is the method: Rat glioma 9 L cells (10^6 cells) were implanted subcutaneously in female Hsd:SD rats. […] Temozolomide (TMZ) was administered orally three times, four days apart. The rats were followed for 54 days.
The next data set deals with mice. Kind of data set: Mouse IV dosing toxicology. It counts as in vivo. Here is the method:
Specific emphasis was placed on documenting potential toxicities associated with IV administered peroxides, namely convulsions, hemolysis, arterial gas emboli-pulmonary damage, and neurological pathology.
Ranges of dosing were 60-400 mg/kg. […] Animals were monitored for 14 days post treatment.

In data set [7] the test system is Human glioblastoma cell line U251. Nature of the data set: U251 glioblastoma implanted intracranially in mice. The conditions noted are these: in vivo.
Experimental: as §2
For a further data set, the system named is SAOS-2 Osteosarcoma. Nature of the data set: SAOS-2 xenograft (sc). The format is in vivo, human. The conditions noted are these: sc implant; intraperitoneal treatment; MTD. As to the method: (§1) 4-HOOI was tested against a number of additional solid tumor xenografts and leukemias.
For another data set, the system named is SK-MEL-31 Melanoma. Nature of the data set: SK-MEL-31 xenograft (sc). The format is in vivo, human. The conditions noted are these: sc implant; intraperitoneal treatment; MTD. Here is the method: as §1
Background: A xenograft is tissue or cells of one species grown in another, often human tumour cells in immunodeficient mice.

The subject of data set [8] is Human breast cancer cell line ZR75-1. Kind of data set: ZR-75-1 xenograft implanted SC in mice. It counts as in vivo. The conditions noted are these: IP once per day for 5 days, 4-HOOI 90, IFOS 40 mg/kg/day.
Experimental: as §2
The subject of another data set is OVCAR-3 Ovarian. Nature of the data set: OVCAR-3 xenograft (sc). The format is in vivo, human. The conditions noted are these: sc implant; intraperitoneal treatment; MTD. Here is the method:
as §1

In data set [9] the test system is NCI-H69 Small cell lung carcinoma. Kind of data set: NCI-H69 xenograft (sc). It counts as in vivo, human. As to conditions: sc implant; intraperitoneal treatment; MTD. As to the method:
as §1

The test system of data set [10] is NCI-H23 Non-small cell lung carcinoma. Nature of the data set: NCI-H23 xenograft (sc). As to conditions: sc implant; intraperitoneal treatment; MTD. The format is in vivo, human. As to the method:
as §1

Read-outs that look alike come from different tables or passages of the source.

For `COc1nc(C(Cl)(Cl)Cl)c(Cl)c(OC(=O)O[C@H]2CC[C@@]3(C)C(=CC[C@H]4[C@@H]5CC[C@H]([C@H](C)CCCC(C)C)[C@@]5(C)CC[C@@H]43)C2)c1Cl` [DM-CHOC-PEN, 4-demethylcholesteryloxycarbonylpenclomedine], the “LTS in U251 glioblastoma” value in data set [1] (Morgan et al. 2009) is recorded as 52 % LTS.
In the case of `O=P1(N(CCCl)CCCl)NCCCO1` (stereo not shown) [CPA, cyclophosphamide], in data set [2], the “AUC values for acrolein (trapezoidal rule)” value was found to be 1520 mg·min/mL.
On to `O=P(O)(NCCCl)NCCCl` [IPM, isophosphoramide mustard], for which the “P388/CPA (% ILS)” value in [3] is listed as “+85 % ILS”. The “Dose limiting toxicity in humans” value in the data set on humans was “renal tubular necrosis was dose limiting”. Further, the “MX-1 T-C” value in data set [4] was 2.1 days.
Consider `O=NN(CCCl)C(=O)NCCCl` [BCNU, bis-chloronitrosourea], for which the ILS in data set [1] (gold standard for the treatment of gliomas) is given as 72 % ILS.
As for `NCCCCC(N)C(=O)O.O=P1(NCCCl)OCCC(OO)N1CCCl` (stereo not shown) [4-HOOI•Lys], the NMR result in [5] (Time 0), in [5] (Time 2 months), in data set [5] (Time 4 months), in data set [5] (Time 6.5 months) and in data set [5] (Time 10 months) was “Stable” throughout. Moreover, the Notes result with 9 L rat glioma cells is “Stabilized form prevented”. In the data set on 9 L rat glioma cells, the IC50 is greater than 1.0 µg/mL. For the same compound, the “Pathology five days later (gross, confirmed by histology)” value in [6] was “did not reveal hemorrhagic cystitis, renal tubular necrosis, or bone marrow depletion”. Further, the “Memory and learning time intervals” value in data set [6] was “no significant differences”. For the same compound, the “CR (animals)” value in the data set on Rat glioma 9 L cells (SC in female Hsd:SD rats, followed 54 days) is 9/9. Further, the Hematuria entry in the data set with Rat glioma 9 L cells (rats bearing 9L glioma) was “No hematuria”. Also, in the data set on Rat glioma 9 L cells (rats bearing 9L glioma), the Weight loss entry is recorded as “No weight loss”.
With `O=P1(NCCCl)OCCCN1CCCl` (stereo not shown) [IFOS, ifosfamide], the “Highest tolerated single IV dose” value with mice is reported as 400 mg/kg. The “AUC values for acrolein (trapezoidal rule)” value in [2] was 960 mg·min/mL. For the same compound, the Urinary hemorrhagic cystitis result in data set [2] (mice) was “the pathology occurred at day 5 post dosing”. Moreover, in data set [7], the “U251 CR (complete response, animals)” value was “(0/5 CR)” and the “U251 T-C” value worked out at 50 days. Also, in the data set with SAOS-2 Osteosarcoma, the “T-C (Days Delay), SAOS-2” value is greater than 61.9 days. In the data set with 9 L rat glioma cells, the Notes result was “Inactive without”. Besides, the IC50 in the data set on 9 L rat glioma cells (Glioma cell, read-out: IC50) was greater than 1 µg/mL. In addition, the “T-C (Days Delay), SK-MEL-31” value in the data set with SK-MEL-31 Melanoma amounted to 10.9 days. For the same compound, in data set [3], the “P388/CPA (% ILS)” value is “+42 % ILS”. Moreover, the “MX-1 LTS (long term survivors)” value in data set [4] (4-HOOI 90, IFOS 40 mg/kg/day) is on record as “(No LTS)”. For the same compound, the “MX-1 T-C” value in data set [4] turned out to be 8.6 days. In addition, the Clinical signs entry in data set [6] (IFOS 400 mg/kg single IP dose) was “shakes and tremors”. In addition, in [6] (IFOS 400 mg/kg single IP dose, five days later), the Bone marrow evaluations result was “pancytopenia”. Further, in data set [6], the “Pathology five days later (gross, confirmed by histology)” value is listed as “hemorrhagic cystitis with gross bleeding”; the “Memory and learning time intervals” value is recorded as “normal learning behavioral patterns”. Also, in data set [8], the “ZR-75-1 CR (complete response)” value is listed as “(17% CR)” and the “ZR-75-1 T-C” value was greater than 43.8 days. Also, in the data set on OVCAR-3 Ovarian, the “T-C (Days Delay), OVCAR-3” value amounted to 12.4 days. For the same compound, the Hematuria result in the data set on Rat glioma 9 L cells (rats bearing 9L glioma) is reported as “observed”. Further, in [9], the “T-C (Days Delay), NCI-H69” value is 6.2 days. Besides, the “T-C (Days Delay), NCI-H23” value in [10] was determined as 13.7 days.

(Values after patent US8361992B2 (Dekk-Tec, Inc., priority 2009, dated 2013).)
